Data published in patent US20230391772A1, “METHODS AND COMPOSITIONS FOR TARGETED PROTEIN DEGRADATION” (Ranok Therapeutics (Hangzhou) Co. Ltd., priority 2020, published 2023).

Experiments:
[1] = system: NCI-H358 human non-small cell lung cancer; assay: NCI-H358 CCK-8 proliferation assay; type: cell-based; details: NCI-H358 cells, 72 hr
How it was run: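 Compounds were tested as a 3-fold series from 20 μM down to 1.02 nM in CCK-8 absorbance assays. The lines used were NCI-H23 and NCI-H358, each with 1 KRAS(G12C) copy, and MIA PaCa-2 with 2 copies. Inhibition was derived relative to DMSO controls, with a no-cell blank subtracted.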

[2] = target: T1, HSP90a protein (Homo sapiens, UniProt P07900); assay: HSP90α-binding fluorescent polarization (FP) assay, BODIPY-labeled RNK04010 probe; details: FP competition with RNK04010 (BODIPY-labeled), 5 nM, 300 min at 25° C.
T1 construct: purchased BPS Bioscience 50298
How it was run: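 Binding was scored by fluorescence polarization after adding N-terminal HSP90a to wells holding probe and compound, with compound tested from 20 μM to 5.2 nM. Probe-dependent times at 25° C were 120 min for FITC-geldanamycin and 300 min for RNK04010-BODIPY, both at 5 nM final.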

Structure (SMILES)	EC50 [1] [µM]	IC50 [2] [µM]
C=CC(=O)N1CCN(c2nc(NCCC(=O)N3CCN(Cc4ccc5c(c4F)CN(C(=O)c4cc(C)c(O)cc4O)C5)CC3)nc3c2CCN(c2cc(O)cc4ccccc24)C3)CC1 [Compound 107, 1-(4-(2-((3-(4-((2-(2,4-dihydroxy-5-methylbenzoyl)-4-fluoroisoindolin-5-yl)methyl)piperazin-1-yl)-3-oxopropyl)amino)-7-(3-hydroxynaphthalen-1-yl)-5,6,7,8-tetrahydropyrido[3,4-d]pyrimidin-4-yl)piperazin-1-yl)prop-2-en-1-one, trifluoroacetic acid]	> 1	> 1
C=C(F)C(=O)N1CCN(c2nc(OC[C@@H]3CCCN3C(=O)COc3ccc(Nc4cc(-n5nc(C(F)(F)F)c6c5CC(C)(C)CC6=O)ccc4C(N)=O)cc3)nc3c2CCN(c2cccc4cccc(Cl)c24)C3)C[C@@H]1CC#N [Compound 164, 2-((4-(2-((S)-2-(((7-(8-chloronaphthalen-1-yl)-4-((S)-3-(cyanomethyl)-4-(2-fluoroacryloyl)piperazin-1-yl)-5,6,7,8-tetrahydropyrido[3,4-d]pyrimidin-2-yl)oxy)methyl)pyrrolidin-1-yl)-2-oxoethoxy)phenyl)amino)-4-(6,6-dimethyl-4-oxo-3-(trifluoromethyl)-4,5,6,7-tetrahydro-1H-indazol-1-yl)benzamide]	> 1	> 1
CC(=O)N1CCN(c2nc(NCCC(=O)NCc3ccc(-n4c(O)nnc4-c4cc(C(C)C)c(O)cc4O)cc3C(F)(F)F)nc3c2CCN(c2cc(O)cc4ccccc24)C3)CC1 [Compound 42, 3-((4-(4-acetylpiperazin-1-yl)-7-(3-hydroxynaphthalen-1-yl)-5,6,7,8-tetrahydropyrido[3,4-d]pyrimidin-2-yl)amino)-N-(4-(3-(2,4-dihydroxy-5-isopropylphenyl)-5-hydroxy-4H-1,2,4-triazol-4-yl)-2-(trifluoromethyl)benzyl)propanamide, trifluoroacetic acid]	> 1	0.1 to 1
CCC(=O)N1CCN(c2nc(=O)n(-c3ccc(C(=O)NCCOCCOc4ccc(-n5c(O)nnc5-c5cc(C(C)C)c(O)cc5O)cc4)nc3)c3nc(-c4c(O)cccc4F)c(F)cc23)[C@@H](C)C1 [Compound 130, N-(2-(2-(4-(3-(2,4-dihydroxy-5-isopropylphenyl)-5-hydroxy-4H-1,2,4-triazol-4-yl)phenoxy)ethoxy)ethyl)-5-(6-fluoro-7-(2-fluoro-6-hydroxyphenyl)-4-((S)-2-methyl-4-propionylpiperazin-1-yl)-2-oxopyrido[2,3-d]pyrimidin-1(2H)-yl)picolinamide]	> 1	< 0.1
CC(=O)N1CCN(c2nc(NCCC(=O)N3CCN(Cc4ccc5c(c4)CN(C(=O)c4cc(C(C)C)c(O)cc4O)C5)CC3)nc3c2CCN(c2cc(O)cc4ccccc24)C3)CC1 [Compound 56, 3-((4-(4-acetylpiperazin-1-yl)-7-(3-hydroxynaphthalen-1-yl)-5,6,7,8-tetrahydropyrido[3,4-d]pyrimidin-2-yl)amino)-1-(4-((2-(2,4-dihydroxy-5-isopropylbenzoyl)isoindolin-5-yl)methyl)piperazin-1-yl)propan-1-one, trifluoroacetic acid]	> 1	0.1 to 1
CCc1cc(-c2nnc(O)n2-c2ccc(CNC(=O)CCNc3nc4c(c(N5CCN(C(C)=O)CC5)n3)CCN(c3cc(O)cc5ccccc35)C4)cc2)c(O)cc1O [Compound 48, 3-((4-(4-acetylpiperazin-1-yl)-7-(3-hydroxynaphthalen-1-yl)-5,6,7,8-tetrahydropyrido[3,4-d]pyrimidin-2-yl)amino)-N-(4-(3-(5-ethyl-2,4-dihydroxyphenyl)-5-hydroxy-4H-1,2,4-triazol-4-yl)benzyl)propanamide, trifluoroacetic acid]	> 1	0.1 to 1
CCC(=O)N1CCN(c2nc(NCCC(=O)NCc3ccc(-n4c(O)nnc4-c4cc(CC)c(O)cc4O)cc3C(F)(F)F)nc3c2CCN(c2cc(O)cc4ccccc24)C3)CC1 [Compound 45, N-(4-(3-(5-ethyl-2,4-dihydroxyphenyl)-5-hydroxy-4H-1,2,4-triazol-4-yl)-2-(trifluoromethyl)benzyl)-3-((7-(3-hydroxynaphthalen-1-yl)-4-(4-propionylpiperazin-1-yl)-5,6,7,8-tetrahydropyrido[3,4-d]pyrimidin-2-yl)amino)propanamide, trifluoroacetic acid]	> 1	> 1
CCC(=O)N1CCN(c2nc(NCCC(=O)NCc3ccc(-n4c(O)nnc4-c4cc(C)c(O)cc4O)cc3)nc3c2CCN(c2cc(O)cc4ccccc24)C3)CC1 [Compound 30, N-(4-(3-(2,4-dihydroxy-5-methylphenyl)-5-hydroxy-4H-1,2,4-triazol-4-yl)benzyl)-3-((7-(3-hydroxynaphthalen-1-yl)-4-(4-propionylpiperazin-1-yl)-5,6,7,8-tetrahydropyrido[3,4-d]pyrimidin-2-yl)amino)propanamide, trifluoroacetic acid]	> 1	> 1

More lines, now with the values ahead:

EC50 [1] [µM]	IC50 [2] [µM]	Structure (SMILES)
> 1	0.1 to 1	C=CC(=O)N1CCN(c2nc(NCCC(=O)N3CCC(Cc4ccc(-n5c(O)nnc5-c5cc(C(C)C)c(O)cc5O)cc4)CC3)nc3c2CCN(c2cc(O)cc4ccccc24)C3)CC1 [Compound 1, 1-(4-(2-((3-(4-(4-(3-(2,4-dihydroxy-5-isopropylphenyl)-5-hydroxy-4H-1,2,4-triazol-4-yl)benzyl)piperidin-1-yl)-3-oxopropyl)amino)-7-(3-hydroxynaphthalen-1-yl)-5,6,7,8-tetrahydropyrido[3,4-d]pyrimidin-4-yl)piperazin-1-yl)prop-2-en-1-one, trifluoroacetic acid]
> 1	> 1	CCCc1cc(-c2nnc(O)n2-c2ccc(CNC(=O)CCNc3nc4c(c(N5CCN(C(=O)CC)CC5)n3)CCN(c3cc(O)cc5ccccc35)C4)cc2)c(O)cc1O [Compound 32, N-(4-(3-(2,4-dihydroxy-5-propylphenyl)-5-hydroxy-4H-1,2,4-triazol-4-yl)benzyl)-3-((7-(3-hydroxynaphthalen-1-yl)-4-(4-propionylpiperazin-1-yl)-5,6,7,8-tetrahydropyrido[3,4-d]pyrimidin-2-yl)amino)propanamide, trifluoroacetic acid]
> 1	0.1 to 1	C=CC(=O)N1CCN(c2nc(NCCC(=O)NCc3ccc(-n4c(O)nnc4-c4cc(C(C)C)c(O)cc4O)cc3F)nc3c2CCN(c2cc(O)cc4ccccc24)C3)CC1 [Compound 47, 3-((4-(4-acryloylpiperazin-1-yl)-7-(3-hydroxynaphthalen-1-yl)-5,6,7,8-tetrahydropyrido[3,4-d]pyrimidin-2-yl)amino)-N-(4-(3-(2,4-dihydroxy-5-isopropylphenyl)-5-hydroxy-4H-1,2,4-triazol-4-yl)-2-fluorobenzyl)propenamide]
0.1 to 1	0.1 to 1	C=CC(=O)N1CCN(c2nc(NCCC(=O)N3CCC(CN4CCN(Cc5ccc(-n6c(O)nnc6-c6cc(CC)c(O)cc6O)cc5F)CC4)CC3)nc3c2CCN(c2cc(O)cc4ccccc24)C3)CC1 [Compound 8, 1-(4-(2-((3-(4-((4-(4-(3-(5-ethyl-2,4-dihydroxyphenyl)-5-hydroxy-4H-1,2,4-triazol-4-yl)-2-fluorobenzyl)piperazin-1-yl)methyl)piperidin-1-yl)-3-oxopropyl)amino)-7-(3-hydroxynaphthalen-1-yl)-5,6,7,8-tetrahydropyrido[3,4-d]pyrimidin-4-yl)piperazin-1-yl)prop-2-en-1-one, trifluoroacetic acid]
> 1	> 1	CC(=O)N1CCN(c2nc(NCCC(=O)N3CCC(Cc4ccc(CN(C)Cc5ccc(-n6c(C(=O)NCC(F)(F)F)nnc6-c6cc(C)c(O)cc6O)cc5)cc4)CC3)nc3c2CCN(c2cccc4ccccc24)C3)C[C@H]1CC#N [Compound 122, (R)-4-(4-(((4-((1-(3-((4-(4-acetyl-3-(cyanomethyl)piperazin-1-yl)-7-(naphthalen-1-yl)-5,6,7,8-tetrahydropyrido[3,4-d]pyrimidin-2-yl)amino)propanoyl)piperidin-4-yl)methyl)benzyl)(methyl)amino)methyl)phenyl)-5-(2,4-dihydroxy-5-methylphenyl)-N-(2,2,2-trifluoroethyl)-4H-1,2,4-triazole-3-carboxamide, trifluoroacetic acid]
0.1 to 1	0.1 to 1	C=CC(=O)N1CCN(c2nc(NCCC(=O)N3CCC(CN4CCN(Cc5ccc(-n6c(C(=O)NCC(F)(F)F)nnc6-c6cc(C)c(O)cc6O)cc5)CC4)CC3)nc3c2CCN(c2cccc4ccccc24)C3)C[C@H]1CC#N [Compound 77, (R)-4-(4-((4-((1-(3-((4-(4-acryloyl-3-(cyanomethyl)piperazin-1-yl)-7-(naphthalen-1-yl)-5,6,7,8-tetrahydropyrido[3,4-d]pyrimidin-2-yl)amino)propanoyl)piperidin-4-yl)methyl)piperazin-1-yl)methyl)phenyl)-5-(2,4-dihydroxy-5-methylphenyl)-N-(2,2,2-trifluoroethyl)-4H-1,2,4-triazole-3-carboxamide, trifluoroacetic acid]
> 1	0.1 to 1	CC(=O)N1CCN(c2nc(NCCC(=O)NCCOCCOc3ccc(-n4c(O)nnc4-c4cc(C(C)C)c(O)cc4O)cc3)nc3c2CCN(c2cc(O)cc4ccccc24)C3)CC1 [Compound 70, 3-((4-(4-acetylpiperazin-1-yl)-7-(3-hydroxynaphthalen-1-yl)-5,6,7,8-tetrahydropyrido[3,4-d]pyrimidin-2-yl)amino)-N-(2-(2-(4-(3-(2,4-dihydroxy-5-isopropylphenyl)-5-hydroxy-4H-1,2,4-triazol-4-yl)phenoxy)ethoxy)ethyl)propanamide, trifluoroacetic acid]
